Measured values published in ChEMBL document CHEMBL5214905 (J Med Chem, 2021).
The source made the active and inactive calls. The rule behind the calls is not given here.

What was measured:
[1] = Volume of distribution at steady state in Sprague-Dawley rat plasma at 100 mg/kg, iv measured after 0.083 to 24 hrs by HPLC analysis; assay type: ADME, organism-based; conditions: time 0.083-24 hrs, read-out: Vdss
[2] = Plasma protein binding in Kunming mouse assessed as binding rate by LC-MS/MS analysis relative to control; assay type: ADME; conditions: read-out: PPB (converted)
[3] = test system: BCRP; assay: Permeability in human Caco-2 expressing BCRP cells across apical to basolateral side by measuring ratio of the final amount of the compound in donor and receiver chambers to the initial amount of the compound in the donor chamber in presence of novobiocin relative to control; assay type: ADME, cell-based; conditions: Caco-2, with novobiocin (concentration not stated)
[4] = test system: Mus musculus; assay: Neuroprotective activity in MPTP induced neurodegenerative C57BL/6J mouse model blood assessed as increase in tryptophan metabolite KYNA treated with MPTP for 7 days followed by compound administration at 30 mg/kg, po by LC-MS/MS analysis; assay type: functional, organism-based
[5] = test system: BCRP; assay: Apparent permeability in human Caco-2 expressing BCRP cells across apical to basolateral side in presence of novobiocin; assay type: ADME, cell-based; conditions: Caco-2, with novobiocin (concentration not stated), read-out: permeability
[6] = Toxicity in MPTP induced C57BL/6J mouse neurodegenerative model assessed as no change in liver weight treated with MPTP for 7 days followed by compound administration at 10 to 30 mg/kg, po measured upto 32 days; assay type: organism-based; conditions: in vivo, 768 h, dose 10-30 mg/kg, time < 32 day
[7] = test system: Mus musculus; assay: Neuroprotective activity in MPTP induced neurodegenerative C57BL/6J mouse model assessed as decrease in tryptophan metabolite NFK in mouse substantia nigra treated with MPTP for 7 days followed by compound administration at 30 mg/kg, po by LC-MS/MS analysis; assay type: functional, organism-based
[8] = test system: Mus musculus; assay: Neuroprotective activity in MPTP induced neurodegenerative C57BL/6J mouse model assessed as decrease in tryptophan metabolite QUIN in mouse striatum treated with MPTP for 7 days followed by compound administration at 30 mg/kg, po by LC-MS/MS analysis; assay type: functional, organism-based
[9] = molecular target: Cytochrome P450 2C9 (Homo sapiens, UniProt P11712); assay: Inhibition of human liver microsome CYP2C9 using 4'-hydroxy diclofenac as substrate incubated for 10 mins by LC/MS/MS analysis; assay type: microsomes
Cytochrome P450 2C9, sequence (P11712 whole entry): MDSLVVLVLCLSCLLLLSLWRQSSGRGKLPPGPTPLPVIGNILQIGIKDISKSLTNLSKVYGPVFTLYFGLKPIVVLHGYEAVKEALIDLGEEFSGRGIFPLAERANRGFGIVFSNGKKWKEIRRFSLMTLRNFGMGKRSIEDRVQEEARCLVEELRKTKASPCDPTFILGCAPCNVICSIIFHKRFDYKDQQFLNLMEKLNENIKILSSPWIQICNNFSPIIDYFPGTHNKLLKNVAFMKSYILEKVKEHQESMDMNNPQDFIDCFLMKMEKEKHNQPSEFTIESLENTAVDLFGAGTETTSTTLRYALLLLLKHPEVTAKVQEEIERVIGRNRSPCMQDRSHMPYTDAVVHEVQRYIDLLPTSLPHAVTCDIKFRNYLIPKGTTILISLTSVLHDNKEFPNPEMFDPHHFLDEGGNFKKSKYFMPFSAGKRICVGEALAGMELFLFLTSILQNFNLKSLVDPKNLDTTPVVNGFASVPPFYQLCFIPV

[10] = test system: BCRP; assay: Efflux ratio of apparent permeability across basolateral to apical side to apical to basolateral side in human Caco-2 expressing BCRP cells; assay type: ADME, cell-based
[11] = Protein binding in Kunming mouse brain assessed as binding rate by LC-MS/MS analysis relative to control; assay type: ADME, tissue-based; conditions: read-out: PB (converted)
[12] = AUC (0 to infinity) in Sprague-Dawley rat plasma at 100 mg/kg, iv measured after 0.083 to 24 hrs by HPLC analysis; assay type: ADME, organism-based; parameters: time lower 0.083 hrs, dose 100 mg/kg, time upper 24 hrs, route iv
[13] = Ratio of drug concentration in total brain to total plasma in Kunming mouse assessed as blood brain barrier permeability measured at 0.5 to 12 hrs by HPLC analysis; conditions: time 0.5-12 hrs
[14] = Toxicity in MPTP induced C57BL/6J mouse neurodegenerative model assessed as no change in spleen weight treated with MPTP for 7 days followed by compound administration at 10 to 30 mg/kg, po measured upto 32 days; assay type: organism-based; conditions: in vivo, 768 h, dose 10-30 mg/kg, time < 32 day
[15] = molecular target: Dual specificity tyrosine-phosphorylation-regulated kinase 1B (Homo sapiens) (UniProt Q9Y463); assay: Inhibition of human wildtype full length DYRK1B expressed in bacterial system at 10 uM relative to control
Dual specificity tyrosine-phosphorylation-regulated kinase 1B (Homo sapiens), sequence (Q9Y463 whole entry, looked up, the tested form may be a part): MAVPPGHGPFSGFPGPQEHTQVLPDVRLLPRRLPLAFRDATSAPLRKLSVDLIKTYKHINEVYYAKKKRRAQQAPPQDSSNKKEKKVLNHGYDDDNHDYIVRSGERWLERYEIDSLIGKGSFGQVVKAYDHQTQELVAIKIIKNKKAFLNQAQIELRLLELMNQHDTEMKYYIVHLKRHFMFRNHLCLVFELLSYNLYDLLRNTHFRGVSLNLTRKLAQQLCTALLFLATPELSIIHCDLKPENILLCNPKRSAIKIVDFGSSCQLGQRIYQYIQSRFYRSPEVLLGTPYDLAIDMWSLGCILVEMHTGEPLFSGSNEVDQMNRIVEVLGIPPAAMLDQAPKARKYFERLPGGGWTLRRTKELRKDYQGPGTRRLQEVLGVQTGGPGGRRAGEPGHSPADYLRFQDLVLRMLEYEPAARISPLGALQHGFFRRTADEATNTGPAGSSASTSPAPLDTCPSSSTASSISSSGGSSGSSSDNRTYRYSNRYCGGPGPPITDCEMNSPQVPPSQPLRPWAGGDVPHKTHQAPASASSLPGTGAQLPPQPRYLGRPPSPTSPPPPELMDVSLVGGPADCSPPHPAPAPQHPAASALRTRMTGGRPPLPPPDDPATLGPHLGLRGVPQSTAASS

[16] = molecular target: T1, Indoleamine 2,3-dioxygenase 1 (Homo sapiens, UniProt P14902); assay: Inhibition of human IDO1 (12 to 403 aa) expressed in Escherichia coli Transetta (DE3) by nanodrop 2000c spectrophotometric analysis
T1 sequence (P14902 whole entry, the tested form may be a part): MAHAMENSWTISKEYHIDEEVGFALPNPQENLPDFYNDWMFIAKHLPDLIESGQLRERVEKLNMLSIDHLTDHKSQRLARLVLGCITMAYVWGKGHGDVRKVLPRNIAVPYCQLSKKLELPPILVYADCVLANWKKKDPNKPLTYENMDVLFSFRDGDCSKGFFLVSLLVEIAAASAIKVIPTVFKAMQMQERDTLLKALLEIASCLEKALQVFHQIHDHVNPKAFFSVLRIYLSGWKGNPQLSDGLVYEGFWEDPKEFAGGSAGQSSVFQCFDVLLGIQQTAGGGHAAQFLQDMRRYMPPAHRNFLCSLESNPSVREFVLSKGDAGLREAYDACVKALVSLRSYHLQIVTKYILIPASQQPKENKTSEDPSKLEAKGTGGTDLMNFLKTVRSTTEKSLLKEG

[17] = test system: MDR1; assay: Apparent permeability in MDCKII expressing MDR1 cells across basolateral to apical side; assay type: ADME, cell-based, Canis lupus familiaris, MDCK-II; conditions: dog, MDCK-MDR1; read-out: permeability
[18] = Toxicity in MPTP induced C57BL/6J mouse neurodegenerative model assessed as no change in heart weight treated with MPTP for 7 days followed by compound administration at 10 to 30 mg/kg, po measured upto 32 days; assay type: organism-based; conditions: in vivo, 768 h, dose 10-30 mg/kg, time < 32 day
[19] = molecular target: T2, Tryptophan 2,3-dioxygenase (Homo sapiens, UniProt P48775)
T2 sequence (P48775 whole entry): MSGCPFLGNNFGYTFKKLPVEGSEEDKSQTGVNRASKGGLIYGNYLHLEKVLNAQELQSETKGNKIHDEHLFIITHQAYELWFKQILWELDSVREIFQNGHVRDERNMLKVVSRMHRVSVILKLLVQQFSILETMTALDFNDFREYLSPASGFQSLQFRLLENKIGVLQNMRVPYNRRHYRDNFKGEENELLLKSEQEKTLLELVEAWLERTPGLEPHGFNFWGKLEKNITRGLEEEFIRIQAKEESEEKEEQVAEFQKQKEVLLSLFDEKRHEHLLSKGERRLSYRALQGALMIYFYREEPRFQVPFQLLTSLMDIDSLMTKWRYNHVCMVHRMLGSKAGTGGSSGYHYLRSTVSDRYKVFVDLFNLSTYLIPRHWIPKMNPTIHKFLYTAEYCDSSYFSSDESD
Description: Inhibition of human TDO (19 to 388 aa) expressed in Escherichia coli Transetta (DE3) by nanodrop 2000c spectrophotometric analysis

[20] = test system: BCRP; assay: Apparent permeability in human Caco-2 expressing BCRP cells across apical to basolateral side; assay type: ADME, cell-based; conditions: read-out: permeability
[21] = molecular target: T2, Tryptophan 2,3-dioxygenase; assay: Inhibition of TDO in overexpressing human A-172 cells; assay type: cell-based
[22] = Tmax in Sprague-Dawley rat plasma at 100 mg/kg, po measured after 0.083 to 24 hrs by HPLC analysis; assay type: ADME, organism-based; conditions: time 0.083-24 hrs
[23] = Half life in Sprague-Dawley rat plasma at 100 mg/kg, po by HPLC analysis; assay type: ADME, organism-based
[24] = test system: MDR1; assay: Permeability in MDCKII expressing MDR1 cells across apical to basolateral side by measuring ratio of the final amount of the compound in donor and receiver chambers to the initial amount of the compound in the donor chamber relative to control; assay type: ADME, cell-based, Canis lupus familiaris, MDCK-II; conditions: dog, MDCK-MDR1
[25] = test system: Mus musculus; assay: In vivo antiinflammatory activity in MPTP induced C57BL/6J mouse neurodegenerative model assessed as decrease in TNF-alpha expression treated with MPTP for 7 days followed by compound administration at 30 mg/kg, po by Western blotting analysis; assay type: functional, organism-based
[26] = molecular target: T2, Tryptophan 2,3-dioxygenase; assay: Inhibition of TDO in overexpressing human SW48 cells; assay type: cell-based
[27] = Clearance in Sprague-Dawley rat plasma at 100 mg/kg, po measured after 0.083 to 24 hrs by HPLC analysis; assay type: ADME, organism-based; conditions: time 0.083-24 hrs
[28] = Unbound fraction in mouse plasma by LC-MS/MS analysis relative to control; assay type: ADME
[29] = AUC (0 to infinity) in Sprague-Dawley rat plasma at 100 mg/kg, po measured after 0.083 to 24 hrs by HPLC analysis; assay type: ADME, organism-based; parameters: time 0.083-24 hrs, dose 100 mg/kg, route po
[30] = test system: Mus musculus; assay: Neuroprotective activity in MPTP induced C57BL/6J mouse neurodegenerative model assessed as no change in IDO1 expression in brain striatum treated with MPTP for 7 days followed by compound administration at 30 mg/kg, po by Western blotting analysis; assay type: functional, organism-based
[31] = Ratio of drug concentration in unbound brain to unbound plasma in Kunming mouse assessed as blood brain barrier permeability measured at 0.5 to 12 hrs by HPLC analysis; conditions: time 0.5-12 hrs
[32] = Toxicity in MPTP induced C57BL/6J mouse neurodegenerative model assessed as no change in lung weight treated with MPTP for 7 days followed by compound administration at 10 to 30 mg/kg, po measured upto 32 days; assay type: organism-based; conditions: in vivo, 768 h, dose 10-30 mg/kg, time < 32 day
[33] = molecular target: Glycogen synthase kinase-3 beta (Homo sapiens) (UniProt P49841); assay: Inhibition of human wildtype full length GSK3 beta expressed in bacterial system at 10 uM relative to control
Glycogen synthase kinase-3 beta (Homo sapiens), sequence (P49841 whole entry, looked up): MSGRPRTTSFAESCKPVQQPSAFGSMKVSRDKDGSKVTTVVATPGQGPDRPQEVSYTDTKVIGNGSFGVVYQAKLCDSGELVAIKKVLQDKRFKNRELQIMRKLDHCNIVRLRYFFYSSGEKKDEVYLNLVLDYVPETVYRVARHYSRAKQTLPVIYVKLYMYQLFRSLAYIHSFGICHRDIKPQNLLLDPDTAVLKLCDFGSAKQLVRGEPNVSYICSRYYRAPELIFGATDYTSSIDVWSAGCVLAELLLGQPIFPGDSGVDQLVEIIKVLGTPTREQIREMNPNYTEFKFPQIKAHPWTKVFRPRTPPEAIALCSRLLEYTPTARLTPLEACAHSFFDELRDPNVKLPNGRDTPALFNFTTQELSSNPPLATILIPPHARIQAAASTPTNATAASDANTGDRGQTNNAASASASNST

[34] = AUC (0 to 12 hrs) in Sprague-Dawley rat plasma at 100 mg/kg, iv measured after 0.083 to 24 hrs by HPLC analysis; assay type: ADME, organism-based; parameters: dose 100 mg/kg, time 0.083-24 hrs, route iv
[35] = molecular target: T1, Indoleamine 2,3-dioxygenase 1; assay: Inhibition of IDO1 in IFN-gamma induced overexpressing human HeLa cells; assay type: cell-based
[36] = test system: BCRP; assay: Apparent permeability in human Caco-2 expressing BCRP cells across basolateral to apical side in presence of novobiocin; assay type: ADME, cell-based; conditions: Caco-2, with novobiocin (concentration not stated), read-out: permeability

Structure (SMILES): O[C@@H]1CCCC[C@H]1CNc1cc(Br)cc2[nH]ncc12
- Vd [1]: 28.1 L/kg
- fraction unbound [2]: 0.0073
- recovery [3]: 43.8%
- Activity [4]: Active
- Papp A→B [5]: 19.4 ×10⁻⁶ cm/s
- Activity [6]: Non-Toxic
- Activity [7]: Active
- Activity [8]: Active
- IC50 [9]: 9270 nM
- efflux ratio [10]: 0.56
- fraction unbound [11]: 0.0025
- AUC(0-inf) [12]: 43800 ng·h/mL
- Ratio [13]: 0.81%
- Activity [14]: Non-Toxic
- inhibition [15]: > 90%
- IC50 [16]: 640 nM
- Papp B→A [17]: 10.3 ×10⁻⁶ cm/s
- Activity [18]: Non-Toxic
- IC50 [19]: 40 nM
- Papp A→B [20]: 18.8 ×10⁻⁶ cm/s
- EC50 [21]: 3030 nM
- Tmax [22]: 0.42 h
- half-life [23]: 4.27 h
- recovery [24]: 55.1%
- Activity [25]: Active
- EC50 [26]: 1070 nM
- CL/F [27]: 69.7 mL/min/kg
- Fu [28]: 0.73%
- AUC(0-inf) [29]: 26600 ng·h/mL
- Activity [30]: Active
- K(p,uu,brain) [31]: 0.28%
- Activity [32]: Non-Toxic
- inhibition [33]: > 90%
- AUC(0-t) [34]: 30300 ng·h/mL
- EC50 [35]: 5500 nM
- Papp B→A [36]: 9.97 ×10⁻⁶ cm/s
